Assays:
[1] = system: A20:T20 duplex DNA (dA20:dT20) (DNA, duplex) AAAAAAAAAAAAAAAAAAAA/TTTTTTTTTTTTTTTTTTTT; test: isothermal titration calorimetry; conditions: 20 mM NaCl (30 mM Na+ in Table 1); 10 mM Na phosphate pH 7.5; 25 °C; 10 µM DNA; N constrained to 4; binding site size 5 bp
[2] = system: A20:T20 duplex DNA (dA20:dT20) (DNA, duplex) AAAAAAAAAAAAAAAAAAAA/TTTTTTTTTTTTTTTTTTTT; test: UV thermal melting, ΔTm binding isotherm fit; conditions: 20 mM NaCl; 10 mM HEPES pH 7.5; 4 µM duplex; chloroquine diphosphate; from ΔTm vs concentration
[3] = system: A20:T20 duplex DNA (dA20:dT20) (DNA, duplex) AAAAAAAAAAAAAAAAAAAA/TTTTTTTTTTTTTTTTTTTT; test: UV thermal melting at 260 nm; conditions: 20 mM NaCl; 10 mM HEPES pH 7.5; 200 µM chloroquine; 4 µM duplex; fitted saturating ΔTm 16 ± 2 °C

## CCN(CC)CCCC(C)Nc1ccnc2cc(Cl)ccc12 (stereo not drawn)
[1]
  KD: 360 ± 20 µM
[2]
  KD: 90 ± 10 µM
[3]
  Tm increase: ~ 10 °C

Source: publication PMC10855526 (2024)
